The values below come from EP1620056B1, “TUMOR CYTOTOXICITY INDUCED BY MODULATORS OF THE CXCR4 RECEPTOR” (Morehouse School of Medicine, priority 2003, dated 2004).

Test [1] deals with MDA-MB231, MCF7, and DU4475. As to the kind of experiment: Agarose gel electrophoresis / DNA fragmentation (DNA laddering) in CXCR4-expressing lines. In kind it is cell-based, human. Particulars: positive control, 10 mM (6.35 mg/ml), 24 hours, compared to untreated cultures. How it is done: Untreated or treated cells were collected, and DNA was harvested from normal or cancer cell cultures. Briefly, the cells were washed with PBS, pelleted at 1600 g for 20 minutes at 4°C, and resuspended in 50 mM Tris-HCl, pH 7.5, 20 mM EDTA buffer at about 10^7 cells/ml. The cells were then treated 2x with lysis buffer: 1.0% NP-40 (Sigma, St. Louis, MO) in the same Tris/EDTA buffer at RT for 2 minutes followed by centrifugation at 1600 g for 5 minutes. After the last spin, SDS was added to the supernatant to 1% final concentration, RNase A (Sigma, St. Louis, MO) was added to 5 mg/ml final concentration, and the solution incubated at 56°C for 2 hours. Subsequently, protease K (Promega, Madison, WI) was added to the solution to 2.5 µg/ml and incubated at 37°C for 2.5 hr. Ammonium acetate was added to 4 M final concentration, 0.7 volumes of isopropanol was added, the solution was put at -20°C overnight followed by centrifugation at 14,000 rpm for 30 minutes. The pellets were washed twice with 70% ethanol, dried and resuspended in 10 mM Tris-HCl, pH 7.5, 1 mM EDTA. DNA samples, 18 µg per condition, were prepared in neutral loading buffer to a final concentration of 0.02% bromophenol blue, 5% glycerol, 0.1% SDS, and 50 µg of ethidium bromide, loaded onto a neutral agarose gel (1.7%), and run at 50V for 2.5 hours. […]

The test system of test [2] is epithelial tumor cell lines. As to the kind of experiment: Apoptotic assay of Gp 120 and Nef peptides. In kind it is cell-based, human. Particulars: peptide sequences within Nef or Gp 120. The text has this:
The nef protein was expressed and purified in the inventors' laboratory. overlapping 20 mer peptides encompassing the entire nef protein and overlapping 15 mer peptides encompassing the entire Gp 120 protein were obtained from the NIH AIDS Research & Reference Reagent Program (McKesson HBC Bio-Services, MD) Other specific peptides designed from within Gp 120 or nef were obtained from SigmaGenosys.
Apoptosis generates DNA free ends which can be labeled in situ using terminal deoxynucleotidyl-transferase (TdT), incorporating an exogenously added labeled nucleotide to the DNA strand. This label can then be visualized directly by fluorescence or indirectly using anti-FITC-peroxidase, and a colorimetric assay. Cells on coverslips were washed with PBS, and fixed for 30 minutes at RT with 4% paraformaldehyde, in PBS, pH 7.4. They were then washed with PBS, and permeabilized with 0.1% Triton X-100 for 10 minutes at room temperature (RT). The slides were rinsed twice with PBS, and air dried for 2 minutes. The manufacturer's procedure for TUNEL staining the slides was followed (manufacturer's procedure for the In Situ Cell Death Detection Kit, AP; Boehringer Mannheim, Indianapolis, IN). Total cell counts were determined by counterstaining fixed cultures with 20 µg/ml of Hoechst 33258. […]

Turning to ceramide, the DNA laddering entry in test [1] was “DNA laddering characteristic of apoptotic cells was observed”.
For ALAETCONAWA, in test [2], the “apoptotic properties of the sequence” value is recorded as “lost all apoptotic effects”.
